{
  "source": "patent US11505558B1",
  "about": "“Antiviral heterocyclic compounds” (Enanta Pharmaceuticals, Inc., priority 2019, dated 2022)",
  "key": {"[1]": {"tested_on": "recombinant HMPV CAN97-83 (MPV-GFP1)", "assay": "HMPV antiviral assay (MPV-GFP1 eGFP fluorescence in Vero E6 cells)", "format": "cell-based", "conditions": "human metapneumovirus, Vero C1008, 120 h, read-out: HMPV EC50", "description": "HMPV antiviral activity was evaluated using a recombinant version of HMPV CAN97-83 engineered to contain the coding sequence for enhanced green fluorescence protein (eGFP) in the 3′ end of the virus genome (MPV-GFP1, ViraTree). Vero E6 cells ([…]) were seeded at a density of 12,000 cells/100 μL/well into 96-well cell plates one day prior to the assay. On the day of screening, the cell culture medium was aspirated from the wells and cells were washed twice with serum-free Eagle's Modified Essential Medium (EMEM, ATCC #) containing 1% penicillin-streptomycin (Invitrogen) (SF-EMEM). Cell washes were performed by dispensing 100 μL SF-EMEM per well and immediately aspirating the wash medium from the well. Following the second wash step, serum-free OptiMEM (Invitrogen, Cat No.) (SF-OptiMEM) containing 0.5 μg/mL TPCK-Trypsin (VENDOR) and 1% penicillin-streptomycin was added to the cells at 50 μL/well. Compounds were added into the 96-well plates using a JANUS automated liquid handling system (VENDOR). Compounds were initially diluted 1:50 into an intermediate 96-well plate containing SF-OptiMEM prior to transfer to the assay plate (25 μL/well). Each of the test compounds were tested in duplicate wells at final concentrations starting from 8 μM or 2 μM using ½ stepwise dilutions for a total of 8 points. Virus infection was performed by preparing a working stock of MPV-GFP1 at a multiplicity of infection (MOI) equal to 0.05/25 μL and aliquoting 25 μL of virus inoculum to the compound and positive control wells. SF-OptiMEM was added (25 μL/well) to the appropriate wells to serve as a virus-free negative control for the assay. The final DMSO concentration of all wells is 0.5%. Plates were incubated at 32° C., 5% CO2 for 5 days.\nAfter 5 days incubation, eGFP fluorescence intensity was measured at […] using a Spectramax i3X plate reader (VENDOR). Percent viral inhibition was calculated using the following equation: y=[[…]−(XQ/XP)]×100 Where XQ is the fluorescence intensity measured in a well containing recombinant MPV-GFP1-infected, compound-treated cells and XP is the average fluorescence intensity measured in the wells containing untreated cells infected with recombinant virus. EC50 values were then calculated by non-linear regression using a four parameter curve logistic equation. The curve fit model employed was XLFit Dose Response One Site Model 200: y=(A+(B/(1+((x/C)^D)))) Where A is the minimum y value, B is the maximum y value, C is the log EC50 value, and D is the slope factor. […] EC50 ranges are as follows: A<0.5 μM; B>0.5 μM."}, "[2]": {"tested_on": "genotype A, \"Long\" strain RSV", "assay": "RSV-A assay (CPE, ATPlite readout in Hep-2 cells)", "format": "cell-based", "conditions": "human respiratory syncytial virus, HEp-2, Hep-2 cells, genotype A \"Long\" strain RSV, MOI 0.1; read-out: Human RSV-A (“Long” strain) EC50", "in_short": "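Protection from RSV-induced cytopathic effect, measured as ATPlite luminescence after 5 days, gave EC50 values. Assay used genotype A Long strain at MOI 0.1 on Hep-2 cells seeded at 8,000/well in DMEM growth media with 10% FBS; compounds tested as 2-fold dilutions in duplicate.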"}},
  "data": [
    {"smiles": "C[C@]1(C(N)=O)COc2c1cc([C@](O)(CNC(=O)c1cc(OC3CC3)c3ncccc3c1)C(F)(F)F)nc2-c1ccc(F)c(F)c1", "note": "[Example 80]", "values": [
      {"measurement": "EC50", "setting": "[1]", "result": "< 500", "unit": "nM"},
      {"measurement": "EC50", "setting": "[2]", "result": "< 200", "unit": "nM"}
    ]},
    {"smiles": "C[C@]1(C(N)=O)COc2c1cc([C@](O)(CNC(=O)c1cc(OC3CC3)c3ncccc3c1)C(F)(F)F)nc2-c1csc2c(F)cccc12", "note": "[Example 81]", "values": [
      {"measurement": "EC50", "setting": "[1]", "result": "< 500", "unit": "nM"},
      {"measurement": "EC50", "setting": "[2]", "result": "< 200", "unit": "nM"}
    ]},
    {"smiles": "C[C@]1(C(N)=O)COc2c1cc([C@](O)(CNC(=O)c1cc(OC3CC3)c3ncccc3c1)C(F)(F)F)nc2-c1ccc(C(F)(F)F)cc1", "note": "[Example 82]", "values": [
      {"measurement": "EC50", "setting": "[1]", "result": "> 500", "unit": "nM"},
      {"measurement": "EC50", "setting": "[2]", "result": "< 200", "unit": "nM"}
    ]},
    {"smiles": "C[C@]1(C(N)=O)COc2c1cc([C@](O)(CNC(=O)c1cc(OC3CC3)c3ncccc3c1)C(F)(F)F)nc2-c1ccc(C#N)cc1", "note": "[Example 83]", "values": [
      {"measurement": "EC50", "setting": "[1]", "result": "> 500", "unit": "nM"},
      {"measurement": "EC50", "setting": "[2]", "result": "< 200", "unit": "nM"}
    ]},
    {"smiles": "C[C@]1(C(N)=O)COc2c1cc([C@](O)(CNC(=O)c1cc(OC3CC3)c3ncccc3c1)C(F)(F)F)nc2-c1ccc(F)c(C#N)c1", "note": "[Example 84]", "values": [
      {"measurement": "EC50", "setting": "[1]", "result": "> 500", "unit": "nM"},
      {"measurement": "EC50", "setting": "[2]", "result": "> 200", "unit": "nM"}
    ]},
    {"smiles": "C[C@]1(C(N)=O)COc2c1cc([C@@](O)(CNC(=O)c1cc(OC3CC3)c3ncccc3c1)C(F)(F)F)nc2-c1ccc(F)c(C(F)(F)F)c1", "note": "[Example 85]", "values": [
      {"measurement": "EC50", "setting": "[1]", "result": "< 500", "unit": "nM"},
      {"measurement": "EC50", "setting": "[2]", "result": "< 200", "unit": "nM"}
    ]},
    {"smiles": "COc1cc(C(=O)NC[C@](O)(c2cc3c(c(-c4ccc(F)c(Cl)c4)n2)OC[C@]3(C)C(N)=O)C(F)(F)F)cc2cccnc12", "note": "[Example 86]", "values": [
      {"measurement": "EC50", "setting": "[1]", "result": "< 500", "unit": "nM"},
      {"measurement": "EC50", "setting": "[2]", "result": "< 200", "unit": "nM"}
    ]},
    {"smiles": "COc1cc(C(=O)NC[C@](O)(c2cc3c(c(-c4ccc(F)c(F)c4)n2)OC[C@]3(C)C(N)=O)C(F)(F)F)cc2cccnc12", "note": "[Example 87]", "values": [
      {"measurement": "EC50", "setting": "[1]", "result": "> 500", "unit": "nM"},
      {"measurement": "EC50", "setting": "[2]", "result": "< 200", "unit": "nM"}
    ]},
    {"smiles": "COc1cc(C(=O)NC[C@](O)(c2cc3c(c(-c4ccc(F)c(Cl)c4)n2)OC[C@]3(C)C(N)=O)C(F)(F)F)ccc1OC1CC1", "note": "[Example 88]", "values": [
      {"measurement": "EC50", "setting": "[1]", "result": "< 500", "unit": "nM"},
      {"measurement": "EC50", "setting": "[2]", "result": "< 200", "unit": "nM"}
    ]},
    {"smiles": "COc1cc(C(=O)NC[C@](O)(c2cc3c(c(-c4ccc(F)c(F)c4)n2)OC[C@]3(C)C(N)=O)C(F)(F)F)ccc1OC1CC1", "note": "[Example 89]", "values": [
      {"measurement": "EC50", "setting": "[1]", "result": "< 500", "unit": "nM"},
      {"measurement": "EC50", "setting": "[2]", "result": "< 200", "unit": "nM"}
    ]},
    {"smiles": "C[C@]1(C(N)=O)COc2c1cc([C@@](O)(CNC(=O)c1ccc(OC3CC3)c(OC3CC3)c1)C(F)(F)F)nc2-c1ccc(F)c(Cl)c1", "note": "[Example 90]", "values": [
      {"measurement": "EC50", "setting": "[1]", "result": "< 500", "unit": "nM"},
      {"measurement": "EC50", "setting": "[2]", "result": "< 200", "unit": "nM"}
    ]},
    {"smiles": "C[C@]1(C(N)=O)COc2c1cc([C@@](O)(CNC(=O)c1ccc(OC3CC3)c(OC3CC3)c1)C(F)(F)F)nc2-c1ccc(F)c(F)c1", "note": "[Example 91]", "values": [
      {"measurement": "EC50", "setting": "[1]", "result": "< 500", "unit": "nM"},
      {"measurement": "EC50", "setting": "[2]", "result": "< 200", "unit": "nM"}
    ]},
    {"smiles": "C[C@]1(C(N)=O)COc2c1cc([C@@](O)(CNC(=O)c1ccc(OC3CC3)c(OC3CC3)c1)C(F)(F)F)nc2-c1csc2c(F)cccc12", "note": "[Example 92]", "values": [
      {"measurement": "EC50", "setting": "[1]", "result": "< 500", "unit": "nM"},
      {"measurement": "EC50", "setting": "[2]", "result": "< 200", "unit": "nM"}
    ]},
    {"smiles": "C[C@]1(C(N)=O)COc2c1cc([C@@](O)(CNC(=O)c1ccc(OC3CC3)c(OC3CC3)c1)C(F)(F)F)nc2-c1ccc(C(F)(F)F)cc1", "note": "[Example 93]", "values": [
      {"measurement": "EC50", "setting": "[1]", "result": "> 500", "unit": "nM"},
      {"measurement": "EC50", "setting": "[2]", "result": "< 200", "unit": "nM"}
    ]},
    {"smiles": "C[C@]1(C(N)=O)COc2c1cc([C@@](O)(CNC(=O)c1ccc(OC3CC3)c(OC3CC3)c1)C(F)(F)F)nc2-c1ccc(C#N)cc1", "note": "[Example 94]", "values": [
      {"measurement": "EC50", "setting": "[1]", "result": "< 500", "unit": "nM"},
      {"measurement": "EC50", "setting": "[2]", "result": "< 200", "unit": "nM"}
    ]},
    {"smiles": "C[C@]1(C(N)=O)COc2c1cc([C@@](O)(CNC(=O)c1ccc(OC3CC3)c(OC3CC3)c1)C(F)(F)F)nc2-c1ccc(F)c(C#N)c1", "note": "[Example 95]", "values": [
      {"measurement": "EC50", "setting": "[1]", "result": "> 500", "unit": "nM"},
      {"measurement": "EC50", "setting": "[2]", "result": "< 200", "unit": "nM"}
    ]},
    {"smiles": "C[C@]1(C(N)=O)COc2c1cc([C@@](O)(CNC(=O)c1ccc(OC3CC3)c(OC3CC3)c1)C(F)(F)F)nc2-c1ccc(F)c(C(F)(F)F)c1", "note": "[Example 96]", "values": [
      {"measurement": "EC50", "setting": "[1]", "result": "< 500", "unit": "nM"},
      {"measurement": "EC50", "setting": "[2]", "result": "< 200", "unit": "nM"}
    ]},
    {"smiles": "Cc1cncc(-c2cc(C(=O)NC[C@](O)(c3cc4c(c(-c5ccc(F)cc5)n3)OC[C@]4(C)C(N)=O)C(F)(F)F)ccc2OC2CC2)c1", "note": "[Example 103]", "values": [
      {"measurement": "EC50", "setting": "[1]", "result": "> 500", "unit": "nM"},
      {"measurement": "EC50", "setting": "[2]", "result": "< 200", "unit": "nM"}
    ]},
    {"smiles": "C[C@]1(C(N)=O)COc2c1cc([C@@](O)(CNC(=O)c1ccc(OC3CC3)c(-c3cncc(C(F)(F)F)c3)c1)C(F)(F)F)nc2-c1ccc(F)cc1", "note": "[Example 104]", "values": [
      {"measurement": "EC50", "setting": "[1]", "result": "> 500", "unit": "nM"},
      {"measurement": "EC50", "setting": "[2]", "result": "> 200", "unit": "nM"}
    ]}
  ]
}
